Measured values from PMC4076210, “Discovery of Novel AKT Inhibitors with Enhanced Anti-Tumor Effects in Combination with the MEK Inhibitor” (PLoS ONE, 2014).
Read-outs that look alike come from different tables or passages of the source.

Key:
Assay type in all cases: biochemical
cSRC(h) = target: T1, cSRC(h) (Homo sapiens, UniProt P12931); test: Kinase panel
T1 construct: purchased Millipore KinaseProfiler

EphA1(h) = target: T2, EphA1(h) (Homo sapiens, UniProt P21709); test: Kinase panel
T2 construct: purchased Millipore KinaseProfiler
T2 sequence (P21709 26-976): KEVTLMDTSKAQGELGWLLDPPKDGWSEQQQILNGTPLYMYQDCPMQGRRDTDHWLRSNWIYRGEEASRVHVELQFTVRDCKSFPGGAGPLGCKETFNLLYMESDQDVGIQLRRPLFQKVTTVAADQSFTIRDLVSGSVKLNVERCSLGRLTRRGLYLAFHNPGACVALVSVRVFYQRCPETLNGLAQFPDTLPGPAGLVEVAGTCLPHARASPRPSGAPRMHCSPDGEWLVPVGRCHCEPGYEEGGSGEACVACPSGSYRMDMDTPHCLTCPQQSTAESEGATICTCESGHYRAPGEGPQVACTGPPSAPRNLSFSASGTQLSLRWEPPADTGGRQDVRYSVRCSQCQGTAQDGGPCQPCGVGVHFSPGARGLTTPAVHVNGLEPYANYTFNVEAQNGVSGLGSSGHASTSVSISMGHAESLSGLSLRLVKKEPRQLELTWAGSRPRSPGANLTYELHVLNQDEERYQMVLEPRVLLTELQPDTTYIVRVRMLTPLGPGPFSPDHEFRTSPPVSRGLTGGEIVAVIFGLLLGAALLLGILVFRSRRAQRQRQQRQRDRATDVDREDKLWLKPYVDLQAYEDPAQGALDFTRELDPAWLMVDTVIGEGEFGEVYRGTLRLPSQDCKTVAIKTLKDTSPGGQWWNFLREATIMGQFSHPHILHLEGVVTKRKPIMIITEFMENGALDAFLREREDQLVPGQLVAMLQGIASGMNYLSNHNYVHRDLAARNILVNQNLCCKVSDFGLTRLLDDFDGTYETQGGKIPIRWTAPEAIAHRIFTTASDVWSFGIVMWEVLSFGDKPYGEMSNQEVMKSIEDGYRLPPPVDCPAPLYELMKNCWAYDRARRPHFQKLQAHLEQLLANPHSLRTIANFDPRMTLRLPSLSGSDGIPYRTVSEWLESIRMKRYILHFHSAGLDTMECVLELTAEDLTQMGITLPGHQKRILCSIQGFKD

FGFR1(V561M)(h) = target: T3, FGFR1(V561M)(h) (Homo sapiens, UniProt P11362, V561M); test: Kinase panel
T3 construct: purchased Millipore KinaseProfiler
T3 sequence (P11362 22-822 V561M): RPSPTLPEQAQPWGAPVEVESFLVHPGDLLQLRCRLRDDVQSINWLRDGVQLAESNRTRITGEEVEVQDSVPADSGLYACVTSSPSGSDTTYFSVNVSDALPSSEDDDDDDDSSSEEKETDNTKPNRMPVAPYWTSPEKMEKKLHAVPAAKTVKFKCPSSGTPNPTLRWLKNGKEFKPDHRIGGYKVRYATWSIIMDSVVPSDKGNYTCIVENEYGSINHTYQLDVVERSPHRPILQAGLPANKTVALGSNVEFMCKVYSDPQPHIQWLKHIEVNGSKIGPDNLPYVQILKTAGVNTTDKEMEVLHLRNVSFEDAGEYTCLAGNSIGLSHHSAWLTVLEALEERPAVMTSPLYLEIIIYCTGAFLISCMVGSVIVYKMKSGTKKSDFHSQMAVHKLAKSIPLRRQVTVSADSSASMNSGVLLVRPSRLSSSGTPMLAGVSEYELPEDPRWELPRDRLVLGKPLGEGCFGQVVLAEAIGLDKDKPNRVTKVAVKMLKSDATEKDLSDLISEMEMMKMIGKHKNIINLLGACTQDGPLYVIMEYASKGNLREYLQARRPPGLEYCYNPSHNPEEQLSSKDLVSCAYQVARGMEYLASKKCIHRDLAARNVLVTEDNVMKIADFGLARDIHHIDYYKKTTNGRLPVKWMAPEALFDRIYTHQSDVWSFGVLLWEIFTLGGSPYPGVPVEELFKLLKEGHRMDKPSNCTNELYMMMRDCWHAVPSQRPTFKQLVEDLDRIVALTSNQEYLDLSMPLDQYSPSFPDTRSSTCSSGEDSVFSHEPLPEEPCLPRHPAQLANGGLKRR

IKKα(h) = target: T4, IKKα(h) (Homo sapiens, UniProt O15111); test: Kinase panel
T4 construct: purchased Millipore KinaseProfiler
T4 sequence (O15111 1-745): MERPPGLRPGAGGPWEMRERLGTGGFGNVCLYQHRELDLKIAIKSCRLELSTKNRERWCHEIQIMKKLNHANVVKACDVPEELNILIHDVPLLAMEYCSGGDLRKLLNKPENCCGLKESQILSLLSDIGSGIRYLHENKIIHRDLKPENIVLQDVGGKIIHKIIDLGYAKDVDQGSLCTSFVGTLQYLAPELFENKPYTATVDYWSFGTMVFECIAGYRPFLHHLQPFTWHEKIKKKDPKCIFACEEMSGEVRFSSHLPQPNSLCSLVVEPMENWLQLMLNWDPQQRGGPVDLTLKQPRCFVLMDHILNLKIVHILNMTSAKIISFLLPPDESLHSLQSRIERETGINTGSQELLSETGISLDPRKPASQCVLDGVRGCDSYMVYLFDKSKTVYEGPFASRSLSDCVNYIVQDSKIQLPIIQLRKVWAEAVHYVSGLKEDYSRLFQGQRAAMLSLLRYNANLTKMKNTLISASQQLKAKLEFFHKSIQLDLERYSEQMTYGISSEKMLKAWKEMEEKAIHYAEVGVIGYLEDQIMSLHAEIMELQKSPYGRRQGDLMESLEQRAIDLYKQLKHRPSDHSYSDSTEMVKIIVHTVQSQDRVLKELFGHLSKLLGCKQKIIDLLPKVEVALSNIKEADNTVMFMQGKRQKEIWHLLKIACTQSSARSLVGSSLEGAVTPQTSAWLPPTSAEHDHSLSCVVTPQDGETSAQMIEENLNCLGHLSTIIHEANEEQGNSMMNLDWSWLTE

MAPK1(h) = target: T5, MAPK1(h) (Homo sapiens, UniProt P27361); test: Kinase panel
T5 construct: purchased Millipore KinaseProfiler
T5 sequence (P27361 whole entry): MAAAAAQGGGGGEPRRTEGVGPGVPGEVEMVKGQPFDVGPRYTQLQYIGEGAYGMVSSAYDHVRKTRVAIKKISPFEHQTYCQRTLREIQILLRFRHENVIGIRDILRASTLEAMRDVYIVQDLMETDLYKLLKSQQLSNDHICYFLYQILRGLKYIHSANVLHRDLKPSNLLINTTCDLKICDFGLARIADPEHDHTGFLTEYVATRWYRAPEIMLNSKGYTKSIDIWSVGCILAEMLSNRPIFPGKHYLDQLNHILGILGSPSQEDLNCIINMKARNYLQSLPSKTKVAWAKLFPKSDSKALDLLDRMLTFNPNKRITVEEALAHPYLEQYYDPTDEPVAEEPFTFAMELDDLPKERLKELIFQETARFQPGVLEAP

PDGFRα(h) = target: T6, PDGFRα(h) (Homo sapiens, UniProt P16234); test: Kinase panel
T6 construct: purchased Millipore KinaseProfiler
T6 sequence (P16234 24-1089): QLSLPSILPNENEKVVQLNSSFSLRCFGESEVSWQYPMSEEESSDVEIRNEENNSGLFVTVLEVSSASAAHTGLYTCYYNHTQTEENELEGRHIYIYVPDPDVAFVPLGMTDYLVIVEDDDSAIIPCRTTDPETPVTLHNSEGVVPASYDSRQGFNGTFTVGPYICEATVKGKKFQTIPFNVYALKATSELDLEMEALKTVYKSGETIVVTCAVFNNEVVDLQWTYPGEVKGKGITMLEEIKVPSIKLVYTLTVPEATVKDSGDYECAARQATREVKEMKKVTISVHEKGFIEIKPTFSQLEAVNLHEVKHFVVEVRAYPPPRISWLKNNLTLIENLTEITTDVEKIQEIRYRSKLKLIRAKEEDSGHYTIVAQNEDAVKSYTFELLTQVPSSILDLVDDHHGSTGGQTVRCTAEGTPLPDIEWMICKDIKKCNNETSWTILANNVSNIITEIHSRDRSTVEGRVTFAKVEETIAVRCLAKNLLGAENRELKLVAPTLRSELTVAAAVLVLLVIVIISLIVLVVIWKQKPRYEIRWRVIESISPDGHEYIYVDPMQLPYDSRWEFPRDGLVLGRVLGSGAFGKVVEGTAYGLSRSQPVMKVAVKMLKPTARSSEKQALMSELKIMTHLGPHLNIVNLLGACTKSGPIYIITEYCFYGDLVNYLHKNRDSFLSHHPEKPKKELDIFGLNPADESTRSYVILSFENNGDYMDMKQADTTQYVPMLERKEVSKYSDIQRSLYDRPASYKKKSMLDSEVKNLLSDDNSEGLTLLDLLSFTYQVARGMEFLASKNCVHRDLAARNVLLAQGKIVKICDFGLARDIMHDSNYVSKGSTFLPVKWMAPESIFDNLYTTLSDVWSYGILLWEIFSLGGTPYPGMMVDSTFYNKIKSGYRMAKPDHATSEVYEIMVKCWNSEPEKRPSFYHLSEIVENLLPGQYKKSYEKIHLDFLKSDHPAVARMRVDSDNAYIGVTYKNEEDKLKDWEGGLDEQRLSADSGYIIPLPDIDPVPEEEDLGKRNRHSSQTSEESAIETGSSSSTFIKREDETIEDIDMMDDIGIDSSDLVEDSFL

PKG1α(h) = target: T7, PKG1α(h) (Homo sapiens, UniProt Q13976); test: Kinase panel
T7 construct: purchased Millipore KinaseProfiler
T7 sequence (Q13976 1-671): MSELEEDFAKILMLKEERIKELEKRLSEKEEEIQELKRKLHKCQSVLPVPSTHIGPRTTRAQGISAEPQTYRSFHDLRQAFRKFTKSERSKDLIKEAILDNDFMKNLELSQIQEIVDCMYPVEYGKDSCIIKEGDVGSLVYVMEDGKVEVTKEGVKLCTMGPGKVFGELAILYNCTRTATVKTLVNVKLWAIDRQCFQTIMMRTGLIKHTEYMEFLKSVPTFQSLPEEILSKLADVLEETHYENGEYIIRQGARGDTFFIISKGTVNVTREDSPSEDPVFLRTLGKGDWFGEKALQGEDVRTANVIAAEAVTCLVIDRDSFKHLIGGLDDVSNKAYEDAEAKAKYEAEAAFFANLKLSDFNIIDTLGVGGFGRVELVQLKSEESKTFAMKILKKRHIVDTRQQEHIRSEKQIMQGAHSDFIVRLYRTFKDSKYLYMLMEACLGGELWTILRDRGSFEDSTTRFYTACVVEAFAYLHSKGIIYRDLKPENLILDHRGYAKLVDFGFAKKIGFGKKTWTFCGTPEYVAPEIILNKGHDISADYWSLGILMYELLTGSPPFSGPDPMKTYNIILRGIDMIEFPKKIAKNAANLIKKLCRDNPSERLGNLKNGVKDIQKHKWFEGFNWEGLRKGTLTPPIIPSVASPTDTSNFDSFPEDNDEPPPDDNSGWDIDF

PKG1β = PKG1β (Homo sapiens, UniProt Q13976); test: Kinase IC50 assay
Sequence of PKG1β (Q13976 1-686 isoform Q13976-2): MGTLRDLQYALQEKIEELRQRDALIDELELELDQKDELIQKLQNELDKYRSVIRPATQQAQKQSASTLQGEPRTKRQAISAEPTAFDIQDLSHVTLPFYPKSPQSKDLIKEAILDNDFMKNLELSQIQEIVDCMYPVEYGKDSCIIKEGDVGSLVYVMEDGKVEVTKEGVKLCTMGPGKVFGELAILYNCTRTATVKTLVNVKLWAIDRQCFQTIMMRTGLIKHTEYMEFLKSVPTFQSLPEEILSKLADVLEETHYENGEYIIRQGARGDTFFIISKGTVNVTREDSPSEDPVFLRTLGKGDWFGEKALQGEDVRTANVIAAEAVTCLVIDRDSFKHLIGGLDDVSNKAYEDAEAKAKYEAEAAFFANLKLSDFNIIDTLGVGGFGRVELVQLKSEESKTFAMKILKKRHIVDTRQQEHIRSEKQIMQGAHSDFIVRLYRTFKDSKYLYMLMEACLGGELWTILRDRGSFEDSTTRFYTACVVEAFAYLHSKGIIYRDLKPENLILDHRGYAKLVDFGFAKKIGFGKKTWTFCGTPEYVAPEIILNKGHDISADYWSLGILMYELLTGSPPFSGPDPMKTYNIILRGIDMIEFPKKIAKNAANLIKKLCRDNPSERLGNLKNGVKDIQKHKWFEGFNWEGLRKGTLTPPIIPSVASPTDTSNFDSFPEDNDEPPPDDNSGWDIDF

T1 sequence (P12931 whole entry): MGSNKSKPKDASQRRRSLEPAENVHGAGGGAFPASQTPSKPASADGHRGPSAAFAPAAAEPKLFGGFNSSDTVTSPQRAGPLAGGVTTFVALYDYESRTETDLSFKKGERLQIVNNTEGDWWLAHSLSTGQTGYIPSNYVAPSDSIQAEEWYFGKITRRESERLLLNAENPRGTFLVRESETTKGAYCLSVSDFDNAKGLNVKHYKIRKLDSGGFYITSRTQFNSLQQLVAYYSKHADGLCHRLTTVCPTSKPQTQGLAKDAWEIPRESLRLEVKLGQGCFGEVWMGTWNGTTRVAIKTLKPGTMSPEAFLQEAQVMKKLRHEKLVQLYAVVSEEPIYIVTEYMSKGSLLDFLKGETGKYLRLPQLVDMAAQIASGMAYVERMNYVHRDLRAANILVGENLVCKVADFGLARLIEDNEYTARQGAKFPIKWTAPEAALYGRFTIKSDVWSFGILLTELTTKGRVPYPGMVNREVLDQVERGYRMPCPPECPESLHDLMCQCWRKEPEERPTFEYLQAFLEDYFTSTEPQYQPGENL

`Cn1ncc(Cl)c1-c1cc(C(=O)N[C@H](CN)Cc2ccc(F)c(F)c2)oc1Cl` [GSK2141795] was tested, and the inhibition at 0.5 µM (cSRC(h); 0.5 µM, read-out: % Inhibition) was -6%, the inhibition at 10 µM (cSRC(h); 10 µM, read-out: % Inhibition) was 49% and the inhibition at 0.5 µM (EphA1(h); 0.5 µM, read-out: % Inhibition) was 4%. The inhibition at 10 µM (EphA1(h); 10 µM, read-out: % Inhibition) was 53%, the inhibition at 0.5 µM (FGFR1(V561M)(h); 0.5 µM, read-out: % Inhibition) was 15% and the inhibition at 10 µM (FGFR1(V561M)(h); 10 µM, read-out: % Inhibition) was 36%. It also gave an inhibition at 0.5 µM (IKKα(h); 0.5 µM, read-out: % Inhibition) of -12%, an inhibition at 10 µM (IKKα(h); 10 µM, read-out: % Inhibition) of 6% and an inhibition at 0.5 µM (MAPK1(h); 0.5 µM, read-out: % Inhibition) of 4%. For the same molecule, the inhibition at 10 µM (MAPK1(h); 10 µM, read-out: % Inhibition) was 58%, the inhibition at 0.5 µM (PDGFRα(h); 0.5 µM, read-out: % Inhibition) was -4% and the inhibition at 10 µM (PDGFRα(h); 10 µM, read-out: % Inhibition) was -4%. It also gave an inhibition at 0.5 µM (PKG1α(h); 0.5 µM, read-out: % Inhibition) of 100%, an inhibition at 10 µM (PKG1α(h); 10 µM, read-out: % Inhibition) of 99% and an IC50 (PKG1β) of under 1 nM.

With `Cn1ncc(Cl)c1-c1cc(C(=O)N[C@H](CN)Cc2cccc(F)c2)sc1Cl` [GSK2110183] the inhibition at 0.5 µM (cSRC(h)) was -1%, the inhibition at 10 µM (cSRC(h)) was 22% and the inhibition at 0.5 µM (EphA1(h)) was -14%. For the same molecule, the inhibition at 10 µM (EphA1(h)) was -5%, the inhibition at 0.5 µM (FGFR1(V561M)(h)) was -4% and the inhibition at 10 µM (FGFR1(V561M)(h)) was 16%. It also gave an inhibition at 0.5 µM (IKKα(h)) of 9%, an inhibition at 10 µM (IKKα(h)) of 8% and an inhibition at 0.5 µM (MAPK1(h)) of -26%. The inhibition at 10 µM (MAPK1(h)) was 10%, the inhibition at 0.5 µM (PDGFRα(h)) was -2% and the inhibition at 10 µM (PDGFRα(h)) was -2%. For the same molecule, the inhibition at 0.5 µM (PKG1α(h)) was 99%, the inhibition at 10 µM (PKG1α(h)) was 99% and the IC50 (PKG1β) was 4 nM.
